According to patent US20240252510A1, “COMPOSITION CONTAINING HOMOHARRINGTONINE AS ACTIVE INGREDIENT FOR PREVENTING OR TREATING MUSCLE DISEASES” (RESEARCH COOPERATION FOUNDATION OF YEUNGNAM UNIVERSITY, priority 2021, published 2024):
“Also recorded” adds a separate entry of the source.

Tests used:
[1] = system: animal model with lower limb fixation-induced muscular atrophy; experiment: Animal model with lower limb fixation-induced muscular atrophy: body weight, dietary intake, muscle weights; assay type: in vivo, C57BL/6 male mice; conditions: lower limb fixation mice; 0.545 μg/g i.p. three times a week for 4 weeks; vs phosphate-buffered saline group
Procedure: 8-week-old C57BL/6 male mice were adapted to the breeding environment for 1 week and then treated with homoharringtonine for 1 week, and the left lower limb was fixed using a stapler and maintained for 3 weeks. The animal model with lower limb fixation-induced muscular atrophy is an animal model for inducing muscular atrophy by reducing a load of body weight, and induction was conducted using a skin stapler (Manipler AZ, Utsunomiya, Tochigi, Japan) according to a method of Caron et al. (A novel hindlimb immobilization procedure for studying skeletal muscular atrophy and recovery in mouse. J Appl Physiol. 2009 June; 106(6):2049-59.). The unfixed right side was used as a control group.
For a total of 4 weeks from 1 week before fixation to 3 weeks of fixation, phosphate-buffered saline was administered to the control group and homoharringtonine (0.545 μg/g body weight) was administered to the experimental group three times a week intraperitoneally.

old mice = experiment: Old mouse model: body weight, dietary intake, gastrocnemius weight; assay type: in vivo, 18-month-old C57BL/6 mice
Procedure: An 18-month-old C57BL/6 was purchased, and maintained in the same breeding environment as above the high-fat diet-induced animal model, and fed with a normal chow diet during the experiment. After adapting the old mice to the breeding environment for 1 week, they were randomly divided into a control group and an experimental group, and phosphate-buffered saline was administered to the control group and homoharringtonine (0.545 μg/g body weight) was administered to the experimental group intraperitoneally three times a week for more than 4 months.

COC(=O)C[C@](O)(CCCC(C)(C)O)C(=O)O[C@@H]1C(OC)=C[C@]23CCCN2CCc2cc4c(cc2[C@H]13)OCO4 [homoharringtonine]
body weight [1]: no statistically significant difference | body weight (old mice; 0.545 μg/g i.p. three times a week, vs phosphate-buffered saline group): did not show a significant difference; also recorded: no statistically significant difference | body weight after 6 months of administration (old mice; another experimental group, 6 months of injection, vs control group): no significant difference
